The values that follow are results of earlier work, collected in patent US9222055B2, “High intensity fragrances” (TAKASAGO INTERNATIONAL CORPORATION, priority 2009, dated 2015).

Like-named read-outs stand apart in the source and are kept apart here.

The term LogP denotes the decadic logarithm of the partition coefficient of the neutral form, usually between octanol and water.

For data set [1] the following is noted: for Readily biodegradable: Table 1.
The conditions of data set [2]: Table 1, measured value where available.
The conditions of data set [3]: evidence from prior art.
Where [4] appears, read: Table 19, ingredients of Comparative Fragrance K.
Setting [5] is: Table 18, ingredients of Comparative Fragrance J.

Take `CC1=CCC(O)(C(C)C)CC1` (stereo not shown) [1-terpinen-4-ol]: the Readily biodegradable result in data set [1] is “No”. For the same molecule, the log partition coefficient (LogP) in data set [2] was 3.26.
For the molecule `CC(C)CC1CC(C)(O)CCO1` (stereo not shown) [2-isobutyl-4-methyltetrahydro-2H-pyran-4-ol], the Bio-Degradable entry in data set [1] (setting [4]) is recorded as “No”.
`C=CCOC(=O)CCCCC` [ALLYL HEXANOATE, allyl hexanoate]: in data set [1], the Readily biodegradable result was “Yes”.
For the molecule `COc1ccc(C=O)cc1` [ANISIC ALDEHYDE, anisic aldehyde], the Readily biodegradable result in data set [1] was “Yes”.
With `CC(=O)/C=C/C1C(C)=CCCC1(C)C` (stereo not drawn) [Alpha ionone], the Bio-Degradable entry in data set [1] (setting [4]) is listed as “No”.
Take `CCCCC/C(C=O)=C/c1ccccc1` [Amyl cinnamic aldehyde]: the allergen classification result in data set [3] is recorded as “strong allergens”.
Regarding `CC(=O)OCc1ccccc1` [BENZYL ACETATE, benzyl acetate], the biodegradability classification result in data set [1] (OECD 301B or OECD 301F, Test Plan for Benzyl Derivatives) is recorded as “readily biodegradable”. The Readily biodegradable result in data set [1] is “Yes”. In addition, in data set [1] (setting [4]), the Bio-Degradable entry is on record as “Yes”.
For `OCc1ccccc1` [BENZYL ALCOHOL, benzyl alcohol], the Readily biodegradable entry in data set [1] was “Yes”.
For the molecule `CCCCOC(C)=O` [BUTYL ACETATE, butyl acetate], the Readily biodegradable entry in data set [1] is listed as “Yes”. Besides, the LogP in data set [2] is on record as 1.78.
On to `O=C(OCc1ccccc1)c1ccccc1O` [Benzyl Salicylate], for which, in data set [1] (setting [5]), the Bio-Degradable entry is recorded as “No”.
`OC/C=C/c1ccccc1` [CINNAMIC ALCOHOL, cinnamic alcohol]: the Readily biodegradable entry in data set [1] was “Yes”. Moreover, the allergen classification entry in data set [3] is listed as “strong allergens”. In addition, in data set [2], the LogP is recorded as 1.95.
As for `O=C/C=C/c1ccccc1` [CINNAMIC ALDEHYDE, cinnamic aldehyde], the Readily biodegradable result in data set [1] is recorded as “Yes”. The allergen classification entry in data set [3] is “strong allergens”.
In the case of `CC/C=C\CCOC(C)=O` [CIS-3-HEXENYL ACETATE, cis-3-hexenyl acetate], in data set [1], the Readily biodegradable entry is reported as “Yes”. The LogP in data set [2] was 2.34.
As for `CC/C=C\CCOC(=O)CC` [CIS-3-HEXENYL PROPIONATE, cis-3-hexenyl propionate], the Readily biodegradable result in data set [1] is on record as “Yes”.
For the molecule `CC(C)=CCCC(C)=CC=O` [CITRAL, citral], the biodegradability classification entry in data set [1] (OECD 301B, The Terpene Consortium Robust Summary) is listed as “readily biodegradable”. Further, in data set [1], the Readily biodegradable result is “Yes”. The allergen classification result in data set [3] was “strong allergens”.
Consider `CC(C)=CCCC(C)CCO` (stereo not shown) [CITRONELLOL, citronellol], for which the biodegradability classification result in data set [1] (OECD 301F, The Terpene Consortium Robust Summary) is given as “readily biodegradable”. In addition, the Readily biodegradable entry in data set [1] is “Yes”.
In the case of `COc1ccc(C)cc1` [Cresyl methyl ether], the Bio-Degradable entry in data set [1] (setting [4]) is given as “Yes”.
For `CCCCCCC1CCC(=O)O1` (stereo not shown) [DECALACTONE GAMMA, decalactone gamma], the Readily biodegradable entry in data set [1] is reported as “Yes”. The log partition coefficient (LogP) in data set [2] is on record as 2.72.
Consider `CCCc1ccc(O)c(OC)c1` [Dihydroeugenol], for which, in data set [1] (setting [4]), the Bio-Degradable result was “No”.
With `CCCC(=O)OC(C)(C)Cc1ccccc1` [Dimethyl benzyl carbonyl butyrate], the Bio-Degradable result in data set [1] (setting [5]) is given as “No”.
With `CCCCCCCCCCCC=O` [Dodecanal], in data set [1] (setting [4]), the Bio-Degradable result is “Yes”.
Take `CCCC(=O)OCC` [ETHYL BUTYRATE, ethyl butyrate]: in data set [1], the Readily biodegradable result is “Yes”. For the same molecule, the LogP in data set [2] is 1.73.
With `CCCCCC(=O)OCC` [ETHYL CAPROATE, ethyl caproate], the Readily biodegradable entry in data set [1] is “Yes”.
Consider `CCCCCCCC(=O)OCC` [ETHYL CAPRYLATE, ethyl caprylate], for which the Readily biodegradable result in data set [1] is on record as “Yes”.
Take `CCCCCCC(=O)OCC` [ETHYL HEPTANOTE, ethyl heptanoate]: in data set [1], the Readily biodegradable entry is on record as “Yes”.
As to `CCOC(=O)CC` [ETHYL PROPIONATE, ethyl propionate], the Readily biodegradable entry in data set [1] was “Yes”. Moreover, in data set [2], the LogP is 1.21.
As for `CCOC(=O)CC(C)=O` [Ethyl acetoaceteate], the Bio-Degradable entry in data set [1] (setting [4]) is given as “Yes”.
`CCOC(=O)C12CCCC1C1CCC2C1` (stereo not shown) [Ethyl tricyclodecan-2-carboxylate]: the Bio-Degradable entry in data set [1] (setting [5]) is recorded as “No”.
With `O=C1CCCCCCCCCCCC(=O)OCCO1` [Ethylene brassylate], the Bio-Degradable entry in data set [1] (setting [5]) and in data set [1] (setting [4]) was “Yes” throughout.
On to `CC(=O)/C(C)=C/C1C(C)=CCCC1(C)C` (stereo not shown) [Gamma methyl ionone], for which, in data set [1] (setting [4]), the Bio-Degradable entry was “No”.
Consider `O=Cc1ccc2c(c1)OCO2` [HELIOTROPINE, heliotropine], for which the LogP in data set [2] is given as 1.05.
As for `CCCCCCOC(C)=O` [HEXYL ACETATE, hexyl acetate], the Readily biodegradable result in data set [1] was “Yes”.
For the molecule `CCCCCCC(C=O)=Cc1ccccc1` [Hexyl Cinnamic Aldehyde], the Bio-Degradable result in data set [1] (setting [5]) is recorded as “Yes”.
For the molecule `CCCCCCOC(=O)c1ccccc1O` [Hexyl salicylate], the Bio-Degradable entry in data set [1] (setting [4]) is “Yes”.
Take `CC(=O)OCCC(C)C` [ISOAMYL ACETATE, isoamyl acetate]: the Readily biodegradable entry in data set [1] is listed as “Yes”. The lipophilicity (LogP) in data set [2] is 2.25.
On to `CC(C)[C@@H]1CC[C@@H](C)C[C@H]1O` [L-MENTHOL, L-menthol], for which the Readily biodegradable entry in data set [1] was “No”.
`C=C(C)[C@H]1CC=C(C)CC1` [LIMONENE, limonene]: in data set [1], the Readily biodegradable result is listed as “No”. In addition, the LogP in data set [2] is on record as 4.57.
For `C=CC(C)(O)CCC=C(C)C` (stereo not shown) [LINALOOL, linalool], the Readily biodegradable result in data set [1] is listed as “No”. Further, the Bio-Degradable entry in data set [1] (setting [5]) and in data set [1] (setting [4]) was “No” each time.
In the case of `C=CC(C)(CCC=C(C)C)OC(C)=O` (stereo not shown) [Linalyl acetate], the Bio-Degradable result in data set [1] (setting [4]) is on record as “No”.
On to `COC(=O)c1ccccc1N` [METHYL ANTHRANILATE, methyl anthranilate], for which the Readily biodegradable entry in data set [1] is “Med”.
Consider `COC(=O)c1ccccc1O` [METHYL SALICYLATE, methyl salicylate], for which, in data set [1], the Readily biodegradable result is listed as “Yes”.
On to `CCCCCC1C(=O)CCC1CC(=O)OC` (stereo not shown) [Methyldihydrojasmonate], for which, in data set [1] (setting [4]), the Bio-Degradable entry is listed as “Yes”.
With `CCCCC1CCC(=O)O1` (stereo not shown) [OCTALACTONE, GAMMA, octalactone gamma], the Readily biodegradable result in data set [1] is given as “Yes”.
Consider `CC(=O)OCCc1ccccc1` [PHENYLETHYL ACETATE, 2-phenylethyl acetate], for which, in data set [1], the Readily biodegradable entry is on record as “Yes”. In data set [2], the log partition coefficient (LogP) is 2.30.
Consider `OCCc1ccccc1` [PHENYLETHYL ALCOHOL, 2-phenylethylalcohol], for which the Readily biodegradable entry in data set [1] was “Yes”. In data set [1] (setting [4]), the Bio-Degradable result is reported as “Yes”.
Consider `CC(C=O)Cc1ccc(C(C)(C)C)cc1` (stereo not drawn) [Para tert-butyl-alpha Methyl hydrocinnamic Aldehyde], for which the Bio-Degradable result in data set [1] (setting [5]) is “No”. Moreover, in data set [3], the allergen classification entry is given as “strong allergens”.
In the case of `CC1=CCC(C(C)(C)O)CC1` (stereo not drawn) [TERPINEOL, ALPHA, alpha-terpineol], in data set [1], the Readily biodegradable result is on record as “No”. In data set [2], the LogP is 2.98.
On to `CCC/C=C/C=O` [TRANS-2-HEXENAL, trans-2-hexenal], for which the Readily biodegradable entry in data set [1] was “Yes”.
As for `CCCCCC1COCCC1OC(C)=O` (stereo not shown) [Tetrahydro-3-penthyl-2H-pyran-4-yl acetate], the Bio-Degradable entry in data set [1] (setting [5]) is “Yes”.
Turning to `C=CCCCCCCCCC=O` [Undecelenic aldehyde], the Bio-Degradable result in data set [1] (setting [4]) is “Yes”.
Turning to `COc1cc(C=O)ccc1O` [VANILLIN, vanillin], the Readily biodegradable result in data set [1] was “Yes”. In addition, the Bio-Degradable entry in data set [1] (setting [4]) was “Yes”.
As for `Cc1occc(=O)c1O` [VELTOL ™, 3-hydroxy-2-methyl-4-pyrone], the Readily biodegradable result in data set [1] is recorded as “Yes”.
As to `CC(C)=CCCC(C)=CCCC(C)=CCO` [farnesol], the allergen classification entry in data set [3] is listed as “strong allergens”.
`CC=Cc1ccc(O)c(OC)c1` [isoeugenol]: the allergen classification result in data set [3] is given as “strong allergens”.
Turning to `CCCCCOC(C)=O` [n-AMYL ACETATE, n-amyl acetate], the Readily biodegradable entry in data set [1] is recorded as “Yes”. For the same molecule, the LogP in data set [2] is 2.30.
For the molecule `CCCCCOC(=O)CC` [n-AMYL PROPIONATE, n-amyl propionate], the Readily biodegradable result in data set [1] is listed as “Yes”. The LogP in data set [2] is reported as 2.66.
